Laboratory results from article PMC6429214, “Design, Synthesis and Biological Evaluation of Isoxazole-Based CK1 Inhibitors Modified with Chiral Pyrrolidine Scaffolds” (Molecules, 2019).

Experiments:
Assay in all cases: 33PanQinase panel
Type in all cases: biochemical
[1] = molecular target: T1, TBK1 (Homo sapiens, UniProt Q9UHD2); conditions: TBK1, 1 µM; read-out: Residual Activity (%)
T1 construct: purchased ProQinase
Summary of the method: (§1)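 Kinases were screened with the inhibitor at a single concentration of 1 µM. Activity was measured radiometrically with 33P, and each reaction mix contained 1% DMSO. Data are expressed as percentage residual activity compared with DMSO control.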

[2] = molecular target: T2, MAPKAPK3 (Homo sapiens, UniProt Q16644); conditions: MAPKAPK3, 1 µM; read-out: Residual Activity (%)
T2 construct: purchased ProQinase
T2 sequence (Q16644 whole entry): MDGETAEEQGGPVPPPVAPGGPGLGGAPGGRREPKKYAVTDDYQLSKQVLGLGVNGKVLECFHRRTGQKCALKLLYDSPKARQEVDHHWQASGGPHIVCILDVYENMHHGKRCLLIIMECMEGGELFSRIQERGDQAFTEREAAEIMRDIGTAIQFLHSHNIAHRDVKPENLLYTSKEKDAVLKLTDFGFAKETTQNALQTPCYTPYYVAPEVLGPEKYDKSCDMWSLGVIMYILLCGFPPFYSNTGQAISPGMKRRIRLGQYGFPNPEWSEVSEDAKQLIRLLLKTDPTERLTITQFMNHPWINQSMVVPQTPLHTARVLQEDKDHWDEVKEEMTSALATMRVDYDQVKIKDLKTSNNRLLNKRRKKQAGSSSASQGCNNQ
Summary of the method: as §1

[3] = molecular target: T3, PKMYT1 (Homo sapiens, UniProt Q99640); conditions: PKMYT1, 1 µM; read-out: Residual Activity (%)
T3 construct: purchased ProQinase
Summary of the method: as §1

[4] = molecular target: T4, Aurora-A (Homo sapiens, UniProt O14965); conditions: read-out: Residual Activity (%)
T4 construct: purchased ProQinase
Summary of the method: as §1

[5] = molecular target: T5, CAMKK2 (Homo sapiens, UniProt Q96RR4); conditions: CAMKK2, 1 µM; read-out: Residual Activity (%)
T5 construct: purchased ProQinase
T5 sequence (Q96RR4 whole entry): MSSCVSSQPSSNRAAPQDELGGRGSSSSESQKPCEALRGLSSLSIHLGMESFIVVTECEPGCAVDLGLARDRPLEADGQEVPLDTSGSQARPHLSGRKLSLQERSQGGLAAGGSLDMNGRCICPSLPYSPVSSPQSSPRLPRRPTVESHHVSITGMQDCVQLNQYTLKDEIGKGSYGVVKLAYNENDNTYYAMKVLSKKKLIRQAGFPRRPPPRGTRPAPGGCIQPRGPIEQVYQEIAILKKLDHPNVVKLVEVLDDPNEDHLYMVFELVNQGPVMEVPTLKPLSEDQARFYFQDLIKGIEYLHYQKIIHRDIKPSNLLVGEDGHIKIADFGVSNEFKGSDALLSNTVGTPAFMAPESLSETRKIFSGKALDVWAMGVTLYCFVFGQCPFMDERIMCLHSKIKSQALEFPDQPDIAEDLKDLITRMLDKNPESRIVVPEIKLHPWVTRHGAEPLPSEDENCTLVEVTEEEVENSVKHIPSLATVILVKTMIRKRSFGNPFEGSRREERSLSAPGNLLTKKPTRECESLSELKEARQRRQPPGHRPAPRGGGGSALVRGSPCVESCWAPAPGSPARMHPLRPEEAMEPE
Summary of the method: as §1

[6] = molecular target: T6, HIPK1 (Homo sapiens, UniProt Q86Z02); conditions: HIPK1, 1 µM; read-out: Residual Activity (%)
T6 construct: purchased ProQinase
T6 sequence (Q86Z02 whole entry): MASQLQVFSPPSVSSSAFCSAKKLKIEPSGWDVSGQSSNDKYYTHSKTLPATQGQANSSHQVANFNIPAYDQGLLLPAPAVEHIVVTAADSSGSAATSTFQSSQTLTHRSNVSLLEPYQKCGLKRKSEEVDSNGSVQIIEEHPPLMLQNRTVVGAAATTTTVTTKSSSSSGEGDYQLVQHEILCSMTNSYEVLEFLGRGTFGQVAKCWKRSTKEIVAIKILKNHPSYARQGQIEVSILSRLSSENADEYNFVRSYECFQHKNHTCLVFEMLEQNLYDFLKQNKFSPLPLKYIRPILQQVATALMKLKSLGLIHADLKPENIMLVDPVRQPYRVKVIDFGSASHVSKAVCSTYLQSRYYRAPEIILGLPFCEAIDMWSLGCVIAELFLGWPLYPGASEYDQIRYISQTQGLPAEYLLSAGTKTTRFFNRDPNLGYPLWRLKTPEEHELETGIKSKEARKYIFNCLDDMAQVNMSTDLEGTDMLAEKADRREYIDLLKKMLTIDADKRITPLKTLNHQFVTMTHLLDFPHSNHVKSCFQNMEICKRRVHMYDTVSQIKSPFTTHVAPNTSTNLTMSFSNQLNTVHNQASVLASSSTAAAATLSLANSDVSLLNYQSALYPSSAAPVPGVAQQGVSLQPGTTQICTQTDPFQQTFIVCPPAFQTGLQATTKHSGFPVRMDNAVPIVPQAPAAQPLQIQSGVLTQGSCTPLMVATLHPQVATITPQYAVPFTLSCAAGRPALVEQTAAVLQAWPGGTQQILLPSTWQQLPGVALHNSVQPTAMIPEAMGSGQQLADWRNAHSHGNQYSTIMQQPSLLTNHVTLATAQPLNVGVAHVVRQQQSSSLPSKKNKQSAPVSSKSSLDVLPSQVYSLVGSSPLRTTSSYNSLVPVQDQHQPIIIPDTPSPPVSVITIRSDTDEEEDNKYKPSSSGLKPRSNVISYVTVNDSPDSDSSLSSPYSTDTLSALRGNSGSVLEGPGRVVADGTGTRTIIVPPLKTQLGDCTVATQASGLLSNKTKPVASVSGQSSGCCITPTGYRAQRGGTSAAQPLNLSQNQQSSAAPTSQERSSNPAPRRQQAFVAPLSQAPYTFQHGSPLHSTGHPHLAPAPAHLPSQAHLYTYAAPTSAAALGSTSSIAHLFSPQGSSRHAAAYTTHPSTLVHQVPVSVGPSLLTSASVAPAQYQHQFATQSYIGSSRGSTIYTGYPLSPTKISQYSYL
Summary of the method: as §1

[7] = molecular target: T7, p38-delta (Homo sapiens, UniProt O15264); conditions: read-out: Residual Activity (%)
T7 construct: purchased ProQinase
Summary of the method: as §1

[8] = molecular target: T8, DYRK1B (Homo sapiens, UniProt Q9Y463); conditions: read-out: Residual Activity (%)
T8 construct: purchased ProQinase
Summary of the method: as §1

[9] = molecular target: T9, TTBK2 (Homo sapiens, UniProt Q6IQ55); conditions: TTBK2, 1 µM; read-out: Residual Activity (%)
T9 construct: purchased ProQinase
T9 sequence (Q6IQ55 whole entry): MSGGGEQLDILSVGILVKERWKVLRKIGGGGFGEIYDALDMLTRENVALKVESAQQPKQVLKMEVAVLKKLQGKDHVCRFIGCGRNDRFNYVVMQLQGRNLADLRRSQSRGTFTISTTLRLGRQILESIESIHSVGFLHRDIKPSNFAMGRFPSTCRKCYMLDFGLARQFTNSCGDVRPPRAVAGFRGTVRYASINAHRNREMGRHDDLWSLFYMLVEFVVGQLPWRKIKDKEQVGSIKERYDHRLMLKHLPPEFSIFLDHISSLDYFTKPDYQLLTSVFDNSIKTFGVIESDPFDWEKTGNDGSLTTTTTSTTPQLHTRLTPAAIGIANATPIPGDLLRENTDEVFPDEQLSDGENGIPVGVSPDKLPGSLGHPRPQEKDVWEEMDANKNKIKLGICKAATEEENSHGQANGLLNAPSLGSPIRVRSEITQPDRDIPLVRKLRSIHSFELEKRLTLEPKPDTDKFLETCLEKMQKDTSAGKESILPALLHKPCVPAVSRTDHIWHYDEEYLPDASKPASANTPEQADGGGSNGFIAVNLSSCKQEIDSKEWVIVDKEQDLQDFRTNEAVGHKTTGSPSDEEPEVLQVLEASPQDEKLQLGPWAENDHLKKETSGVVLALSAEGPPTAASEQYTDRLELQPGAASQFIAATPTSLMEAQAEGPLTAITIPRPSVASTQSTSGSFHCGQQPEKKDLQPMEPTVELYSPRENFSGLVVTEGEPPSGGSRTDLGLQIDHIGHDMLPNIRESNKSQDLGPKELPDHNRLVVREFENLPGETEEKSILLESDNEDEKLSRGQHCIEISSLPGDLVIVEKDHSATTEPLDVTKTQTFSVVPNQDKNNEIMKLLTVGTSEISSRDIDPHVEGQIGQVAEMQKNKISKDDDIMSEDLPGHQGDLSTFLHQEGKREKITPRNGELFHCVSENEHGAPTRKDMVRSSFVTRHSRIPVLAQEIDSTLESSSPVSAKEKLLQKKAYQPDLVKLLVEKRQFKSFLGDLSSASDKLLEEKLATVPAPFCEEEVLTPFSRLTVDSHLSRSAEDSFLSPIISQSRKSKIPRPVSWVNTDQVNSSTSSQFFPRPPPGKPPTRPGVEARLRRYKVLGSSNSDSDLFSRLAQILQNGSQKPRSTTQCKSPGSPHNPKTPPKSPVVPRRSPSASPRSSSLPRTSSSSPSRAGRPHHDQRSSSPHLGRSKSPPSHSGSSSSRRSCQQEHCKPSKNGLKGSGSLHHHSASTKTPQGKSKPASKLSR
Summary of the method: as §1

[10] = molecular target: T10, STK17A (Homo sapiens, UniProt Q9UEE5); conditions: read-out: Residual Activity (%)
T10 construct: purchased ProQinase
Summary of the method: as §1

[11] = molecular target: T11, MAP4K4 (Homo sapiens, UniProt O95819); conditions: MAP4K4, 1 µM; read-out: Residual Activity (%)
T11 construct: purchased ProQinase
Summary of the method: as §1

[12] = molecular target: T12, EPHA3 (Homo sapiens, UniProt P29320); conditions: EPHA3, 1 µM; read-out: Residual Activity (%)
T12 construct: purchased ProQinase
Summary of the method: as §1

[13] = molecular target: T13, PRK2 (Homo sapiens, UniProt Q16513); conditions: PRK2, 1 µM; read-out: Residual Activity (%)
T13 construct: purchased ProQinase
Summary of the method: as §1

[14] = molecular target: T14, ERK2 (Homo sapiens, UniProt P28482); conditions: ERK2, 1 µM; read-out: Residual Activity (%)
T14 construct: purchased ProQinase
Summary of the method: as §1

[15] = molecular target: T15, MAPKAPK2 (Homo sapiens, UniProt P49137); conditions: MAPKAPK2, 1 µM; read-out: Residual Activity (%)
T15 construct: purchased ProQinase
Summary of the method: as §1

[16] = molecular target: T16, ERBB2 (Homo sapiens, UniProt P04626); conditions: ERBB2, 1 µM; read-out: Residual Activity (%)
T16 construct: purchased ProQinase
Summary of the method: as §1

[17] = molecular target: T17, CAMK4 (Homo sapiens, UniProt Q16566); conditions: CAMK4, 1 µM; read-out: Residual Activity (%)
T17 construct: purchased ProQinase
T17 sequence (Q16566 whole entry): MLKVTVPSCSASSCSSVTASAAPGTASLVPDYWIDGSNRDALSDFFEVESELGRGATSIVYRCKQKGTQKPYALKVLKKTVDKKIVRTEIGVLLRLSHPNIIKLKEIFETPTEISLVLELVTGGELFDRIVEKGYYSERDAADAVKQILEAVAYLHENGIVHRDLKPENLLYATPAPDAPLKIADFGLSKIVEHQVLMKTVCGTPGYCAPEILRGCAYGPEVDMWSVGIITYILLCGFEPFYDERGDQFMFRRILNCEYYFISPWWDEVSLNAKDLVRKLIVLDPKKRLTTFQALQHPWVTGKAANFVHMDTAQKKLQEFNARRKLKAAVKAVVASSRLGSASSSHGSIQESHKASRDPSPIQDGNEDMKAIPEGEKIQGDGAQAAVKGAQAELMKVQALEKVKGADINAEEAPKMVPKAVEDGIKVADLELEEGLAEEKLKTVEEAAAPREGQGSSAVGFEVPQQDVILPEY
Summary of the method: as §1

[18] = molecular target: T18, PRKX (Homo sapiens, UniProt P51817); conditions: read-out: Residual Activity (%)
T18 construct: purchased ProQinase
T18 sequence (P51817 whole entry): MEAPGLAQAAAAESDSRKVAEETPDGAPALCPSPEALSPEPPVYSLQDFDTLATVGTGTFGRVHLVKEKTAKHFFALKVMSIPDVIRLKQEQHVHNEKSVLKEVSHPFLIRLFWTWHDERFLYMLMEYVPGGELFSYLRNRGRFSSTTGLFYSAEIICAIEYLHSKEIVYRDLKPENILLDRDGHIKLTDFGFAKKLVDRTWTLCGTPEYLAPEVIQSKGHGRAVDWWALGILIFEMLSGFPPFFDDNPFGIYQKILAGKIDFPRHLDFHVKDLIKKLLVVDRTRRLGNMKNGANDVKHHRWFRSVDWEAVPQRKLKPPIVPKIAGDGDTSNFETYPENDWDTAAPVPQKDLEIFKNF
Summary of the method: as §1

[19] = molecular target: T19, IRAK1 (Homo sapiens, UniProt P51617); conditions: IRAK1, 1 µM; read-out: Residual Activity (%)
T19 construct: purchased ProQinase
Summary of the method: as §1

[20] = molecular target: T20, ABL1 (Homo sapiens, UniProt P00519); conditions: ABL1, 1 µM; read-out: Residual Activity (%)
T20 construct: purchased ProQinase
Summary of the method: as §1

[21] = molecular target: T21, CDK1/CycB1 (Homo sapiens, UniProt P06493); conditions: CDK1/CycB1, 1 µM; read-out: Residual Activity (%)
T21 construct: purchased ProQinase
Summary of the method: as §1

[22] = molecular target: T22, MYLK2 (Homo sapiens, UniProt Q9H1R3); conditions: MYLK2, 1 µM; read-out: Residual Activity (%)
T22 construct: purchased ProQinase
Summary of the method: as §1

[23] = molecular target: T23, CDK6/CycD1 (Homo sapiens, UniProt Q00534); conditions: CDK6/CycD1, 1 µM; read-out: Residual Activity (%)
T23 construct: purchased ProQinase
Summary of the method: as §1

[24] = molecular target: T24, CHK1 (Homo sapiens, UniProt O14757); conditions: CHK1, 1 µM; read-out: Residual Activity (%)
T24 construct: purchased ProQinase
Summary of the method: as §1

[25] = molecular target: T25, STK39 (Homo sapiens, UniProt Q9UEW8); conditions: STK39, 1 µM; read-out: Residual Activity (%)
T25 construct: purchased ProQinase
Summary of the method: as §1

[26] = molecular target: T26, HIPK3 (Homo sapiens, UniProt Q9H422); conditions: HIPK3, 1 µM; read-out: Residual Activity (%)
T26 construct: purchased ProQinase
Summary of the method: as §1

[27] = molecular target: T27, PKA (Homo sapiens, UniProt P17612); conditions: read-out: Residual Activity (%)
T27 construct: purchased ProQinase
Summary of the method: as §1

[28] = molecular target: T28, GRK6 (Homo sapiens, UniProt P43250); conditions: GRK6, 1 µM; read-out: Residual Activity (%)
T28 construct: purchased ProQinase
Summary of the method: as §1

[29] = molecular target: T29, PKC-iota (Homo sapiens, UniProt P41743); conditions: read-out: Residual Activity (%)
T29 construct: purchased ProQinase
T29 sequence (P41743 whole entry): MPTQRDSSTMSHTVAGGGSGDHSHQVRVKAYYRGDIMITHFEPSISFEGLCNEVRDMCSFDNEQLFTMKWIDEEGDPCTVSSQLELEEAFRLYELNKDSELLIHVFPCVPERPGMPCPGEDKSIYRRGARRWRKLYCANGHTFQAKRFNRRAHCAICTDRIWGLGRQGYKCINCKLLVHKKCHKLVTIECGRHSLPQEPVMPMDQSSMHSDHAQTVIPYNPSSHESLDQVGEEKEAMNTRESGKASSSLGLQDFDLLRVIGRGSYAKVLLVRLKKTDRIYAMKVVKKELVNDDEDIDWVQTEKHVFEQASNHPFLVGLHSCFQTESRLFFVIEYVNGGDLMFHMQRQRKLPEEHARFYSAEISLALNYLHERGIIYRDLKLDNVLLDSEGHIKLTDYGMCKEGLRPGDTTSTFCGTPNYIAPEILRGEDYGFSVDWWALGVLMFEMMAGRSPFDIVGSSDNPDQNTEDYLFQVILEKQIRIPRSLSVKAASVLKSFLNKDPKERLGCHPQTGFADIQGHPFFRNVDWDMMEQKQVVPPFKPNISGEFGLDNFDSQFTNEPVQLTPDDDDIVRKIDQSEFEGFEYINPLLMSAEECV
Summary of the method: as §1

COc1ccc(-c2cc(C(=O)Nc3cc(-c4c(-c5ccc(F)cc5)noc4C(C)C)ccn3)n(CC3NCC(O)C3O)c2)cc1 (centres unmarked) [29d]
remaining activity at 1 µM [1]: 113% | remaining activity at 1 µM [2]: 91% | remaining activity at 1 µM [3]: 107% | remaining activity at 1 µM [4]: 103% | remaining activity at 1 µM [5]: 97% | remaining activity at 1 µM [6]: 98% | remaining activity at 1 µM [7]: 99% | remaining activity at 1 µM [8]: 104% | remaining activity at 1 µM [9]: 101% | remaining activity at 1 µM [10]: 102% | remaining activity at 1 µM [11]: 83% | remaining activity at 1 µM [12]: 118% | remaining activity at 1 µM [13]: 88% | remaining activity at 1 µM [14]: 104% | remaining activity at 1 µM [15]: 96% | remaining activity at 1 µM [16]: 121% | remaining activity at 1 µM [17]: 102% | remaining activity at 1 µM [18]: 92% | remaining activity at 1 µM [19]: 91% | remaining activity at 1 µM [20]: 95% | remaining activity at 1 µM [21]: 107% | remaining activity at 1 µM [22]: 97% | remaining activity at 1 µM [23]: 104% | remaining activity at 1 µM [24]: 97% | remaining activity at 1 µM [25]: 110% | remaining activity at 1 µM [26]: 109% | remaining activity at 1 µM [27]: 96% | remaining activity at 1 µM [28]: 101% | remaining activity at 1 µM [29]: 88%
